Laboratory results taken from patent publication US12077503B2, “Substituted cyclic amides and their use as herbicides” (FMC CORPORATION, priority 2015, dated 2024).

Assays:
Assay in all cases: Test C preemergence
Format in all cases: in vivo
[1] = test system: velvetleaf (Abutilon theophrasti); settings: for Plant response rating, Velvetleaf: scale 0 to 100, 0 no effect, 100 complete control
In short: (§1)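 Herbicidal effect, applied preemergence to sown seeds or postemergence to 1- to 4-leaf plants, was scored visually 13 to 15 d after application, 0 to 100 versus controls.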

[2] = test system: nutsedge, yellow (yellow nutsedge, Cyperus esculentus); settings: for Plant response rating, Nutsedge, Yellow: scale 0 to 100, 0 no effect, 100 complete control
In short: as §1

[3] = test system: blackgrass (Alopecurus myosuroides); settings: for Plant response rating, Blackgrass: scale 0 to 100, 0 no effect, 100 complete control
In short: as §1

[4] = test system: ryegrass, Italian (Italian ryegrass, Lolium multiflorum); settings: for Plant response rating, Ryegrass, Italian: scale 0 to 100, 0 no effect, 100 complete control
In short: as §1

[5] = test system: lambsquarters (Chenopodium album); settings: for Plant response rating, Lambsquarters: scale 0 to 100, 0 no effect, 100 complete control
In short: as §1

[6] = test system: pigweed (Amaranthus retroflexus); settings: for Plant response rating, Pigweed: scale 0 to 100, 0 no effect, 100 complete control
In short: as §1

[7] = test system: barnyardgrass (Echinochloa crus-galli); settings: for Plant response rating, Barnyardgrass: scale 0 to 100, 0 no effect, 100 complete control
In short: as §1

[8] = test system: crabgrass, large (large crabgrass, Digitaria sanguinalis); settings: for Plant response rating, Crabgrass, Large: scale 0 to 100, 0 no effect, 100 complete control
In short: as §1

[9] = test system: Galium (catchweed bedstraw, Galium aparine); settings: for Plant response rating, Galium: scale 0 to 100, 0 no effect, 100 complete control
In short: as §1

[10] = test system: foxtail, giant (giant foxtail, Setaria faberii); settings: for Plant response rating, Foxtail, Giant: scale 0 to 100, 0 no effect, 100 complete control
In short: as §1

[11] = test system: corn (Zea mays); settings: for Plant response rating, Corn: scale 0 to 100, 0 no effect, 100 complete control
In short: as §1

[12] = test system: johnsongrass (Sorghum halepense); settings: for Plant response rating, Johnsongrass: scale 0 to 100, 0 no effect, 100 complete control
In short: as §1

[13] = test system: morningglory (Ipomoea coccinea); settings: for Plant response rating, Morningglory: scale 0 to 100, 0 no effect, 100 complete control
In short: as §1

[14] = test system: wheat (winter wheat, Triticum aestivum); settings: for Plant response rating, Wheat: scale 0 to 100, 0 no effect, 100 complete control
In short: as §1

[15] = test system: waterhemp (common waterhemp, Amaranthus rudis); settings: for Plant response rating, Waterhemp: scale 0 to 100, 0 no effect, 100 complete control
In short: as §1

[16] = test system: soybean (Glycine max); settings: for Plant response rating, Soybean: scale 0 to 100, 0 no effect, 100 complete control
In short: as §1

[17] = test system: oilseed rape (Brassica napus); settings: for Plant response rating, Oilseed Rape: scale 0 to 100, 0 no effect, 100 complete control
In short: as §1

[18] = 31 g ai/ha, 0 is no effect, 100 is complete control

CN1CC(c2cccc(OC(F)F)c2)C(C(=O)Nc2cccc(F)c2F)C1=O (centres unmarked) [Compound 616]
Plant response rating (scale of 0 to 100), Velvetleaf [1, 18]: 0 | Plant response rating, Velvetleaf ([1]; 62 g ai/ha): 10 | Plant response rating, Velvetleaf ([1]; 125 g ai/ha): 40 | Plant response rating, Velvetleaf ([1]; 250 g ai/ha): 35 | Plant response rating (scale of 0 to 100), Nutsedge, Yellow [2, 18]: 0 | Plant response rating, Nutsedge, Yellow ([2]; 62 g ai/ha): 0 | Plant response rating, Nutsedge, Yellow ([2]; 125 g ai/ha): 0 | Plant response rating, Nutsedge, Yellow ([2]; 250 g ai/ha): 0 | Plant response rating (scale of 0 to 100), Blackgrass [3, 18]: 30 | Plant response rating, Blackgrass ([3]; 62 g ai/ha): 45 | Plant response rating, Blackgrass ([3]; 125 g ai/ha): 80 | Plant response rating, Blackgrass ([3]; 250 g ai/ha): 80 | Plant response rating (scale of 0 to 100), Ryegrass, Italian [4, 18]: 30 | Plant response rating, Ryegrass, Italian ([4]; 62 g ai/ha): 35 | Plant response rating, Ryegrass, Italian ([4]; 125 g ai/ha): 90 | Plant response rating, Ryegrass, Italian ([4]; 250 g ai/ha): 85 | Plant response rating (scale of 0 to 100), Lambsquarters [5, 18]: 25 | Plant response rating, Lambsquarters ([5]; 62 g ai/ha): 35 | Plant response rating, Lambsquarters ([5]; 125 g ai/ha): 70 | Plant response rating, Lambsquarters ([5]; 250 g ai/ha): 60 | Plant response rating (scale of 0 to 100), Pigweed [6, 18]: 75 | Plant response rating, Pigweed ([6]; 62 g ai/ha): 80 | Plant response rating, Pigweed ([6]; 125 g ai/ha): 80 | Plant response rating, Pigweed ([6]; 250 g ai/ha): 80 | Plant response rating (scale of 0 to 100), Barnyardgrass [7, 18]: 90 | Plant response rating, Barnyardgrass ([7]; 62 g ai/ha): 90 | Plant response rating, Barnyardgrass ([7]; 125 g ai/ha): 95 | Plant response rating, Barnyardgrass ([7]; 250 g ai/ha): 95 | Plant response rating (scale of 0 to 100), Crabgrass, Large [8, 18]: 90 | Plant response rating, Crabgrass, Large ([8]; 62 g ai/ha): 90 | Plant response rating, Crabgrass, Large ([8]; 125 g ai/ha): 95 | Plant response rating, Crabgrass, Large ([8]; 250 g ai/ha): 95 | Plant response rating (scale of 0 to 100), Galium [9, 18]: 90 | Plant response rating, Galium ([9]; 62 g ai/ha): 85 | Plant response rating, Galium ([9]; 125 g ai/ha): 85 | Plant response rating, Galium ([9]; 250 g ai/ha): 90 | Plant response rating (scale of 0 to 100), Foxtail, Giant [10, 18]: 90 | Plant response rating, Foxtail, Giant ([10]; 62 g ai/ha): 90 | Plant response rating, Foxtail, Giant ([10]; 125 g ai/ha): 90 | Plant response rating, Foxtail, Giant ([10]; 250 g ai/ha): 95 | Plant response rating (scale of 0 to 100), Corn [11, 18]: 55 | Plant response rating, Corn ([11]; 62 g ai/ha): 65 | Plant response rating, Corn ([11]; 125 g ai/ha): 80 | Plant response rating, Corn ([11]; 250 g ai/ha): 85 | Plant response rating (scale of 0 to 100), Johnsongrass [12, 18]: 60 | Plant response rating, Johnsongrass ([12]; 62 g ai/ha): 85 | Plant response rating, Johnsongrass ([12]; 125 g ai/ha): 75 | Plant response rating, Johnsongrass ([12]; 250 g ai/ha): 90 | Plant response rating (scale of 0 to 100), Morningglory [13, 18]: 0 | Plant response rating, Morningglory ([13]; 62 g ai/ha): 0 | Plant response rating, Morningglory ([13]; 125 g ai/ha): 10 | Plant response rating, Morningglory ([13]; 250 g ai/ha): 10 | Plant response rating (scale of 0 to 100), Wheat [14, 18]: 0 | Plant response rating, Wheat ([14]; 62 g ai/ha): 10 | Plant response rating, Wheat ([14]; 125 g ai/ha): 50 | Plant response rating, Wheat ([14]; 250 g ai/ha): 85 | Plant response rating (scale of 0 to 100), Waterhemp [15, 18]: 50 | Plant response rating, Waterhemp ([15]; 62 g ai/ha): 80 | Plant response rating, Waterhemp ([15]; 125 g ai/ha): 85 | Plant response rating, Waterhemp ([15]; 250 g ai/ha): 85 | Plant response rating (scale of 0 to 100), Soybean [16, 18]: 0 | Plant response rating, Soybean ([16]; 62 g ai/ha): 0 | Plant response rating, Soybean ([16]; 125 g ai/ha): 0 | Plant response rating, Soybean ([16]; 250 g ai/ha): 15 | Plant response rating (scale of 0 to 100), Oilseed Rape [17, 18]: 60 | Plant response rating, Oilseed Rape ([17]; 62 g ai/ha): 60 | Plant response rating, Oilseed Rape ([17]; 125 g ai/ha): 70 | Plant response rating, Oilseed Rape ([17]; 250 g ai/ha): 85
